Measured values: US12496348B2, “Small molecule target bromo/acetyl proteins and uses thereof” (DANA-FARBER CANCER INSTITUTE, INC., priority 2019, dated 2025)
Like-named read-outs stand apart in the source and are kept apart here.

Key:
EP300 = EP300 (Homo sapiens (Human), UniProt Q09472); assay: Western blot for EP300 degradation in Kelly NB cells; type: cell-based; settings: 24 hours
Experimental: (§1) […] Whole cell lysates were collected using ice cold lysis buffer [300 mM NaCl, 50 mM Tris-HCl, pH 7.5, 0.5% Triton X-100, 1% sodium dodecyl sulfate (SDS), 1 mM dithiothreitol (DTT) (Invitrogen™), Roche®'s cOmplete™ protease inhibitor cocktail (1:000), 25 units/mL Benzonase®] and blotted at a protein concentration of 30 μg for EP300 and CBP and 10 μg for histone H3 and H3K27ac. Lysates were also blotted for bromodomain-containing protein 4 (BRD4). Lysates were resolved in NuPAGE™ 3-8% Tris-Acetate polyacrylamide gels (EA03785BOX, Invitrogen™) for EP300 and CBP and Bolt 4-12% Bis-Tris polyacrylamide gels (NW04125BOX, Invitrogen™) for H3 and H3K27ac. Afterwards, gels were transferred to nitrocellulose membranes (LC2001, Invitrogen™). […] Visualization was performed on an Odyssey infrared imaging system (LiCor® Biosciences).

[1] = system: Kelly Neuroblastoma cells; assay: ATPlite Luminescence viability assay, Kelly neuroblastoma cells, 72 h; type: cell-based; settings: for IC50: ATPlite; for IC50 values (range in words): Kelly Neuroblastoma cell proliferation
Experimental: Kelly Neuroblastoma cells were seeded at 1,000 cells per well in 384 well, white plates and were treated in a dose-dependent manner for 72 h.

H3K27ac = assay: Western blot for H3K27ac levels in Kelly NB cells; type: cell-based; settings: 24 hours; for H3K27ac / acetylation levels (immunoblot): concentration not given; for acetylation levels (immunoblot): at 1 μM
Experimental: (§2) Kelly Neuroblastoma cells were seeded at 1,000,000 cells per well in 6 well plates and were treated in a dose-dependent manner for 24 hours. Whole cell lysates were collected using ice cold lysis buffer [300 mM NaCl, 50 mM Tris-HCl, pH 7.5, 0.5% Triton X-100, 1% sodium dodecyl sulfate (SDS), 1 mM dithiothreitol (DTT) (Invitrogen™), Roche®'s cOmplete™ protease inhibitor cocktail (1:000), 25 units/mL Benzonase®] and blotted at a protein concentration of 30 μg for EP300 and CBP and 10 μg for histone H3 and H3K27ac. Lysates were also blotted for bromodomain-containing protein 4 (BRD4). Lysates were resolved in NuPAGE™ 3-8% Tris-Acetate polyacrylamide gels (EA03785BOX, Invitrogen™) for EP300 and CBP and Bolt 4-12% Bis-Tris polyacrylamide gels (NW04125BOX, Invitrogen™) for H3 and H3K27ac. Afterwards, gels were transferred to nitrocellulose membranes (LC2001, Invitrogen™). […] Visualization was performed on an Odyssey infrared imaging system (LiCor® Biosciences).

CBP bromodomain = CBP bromodomain (Homo sapiens (Human), UniProt Q92793); assay: CBP (Bromodomain) AlphaScreen Assay; type: binding; settings: FIG. 6
Experimental: Assays were performed with minimal modifications from the manufacturer's protocol (PerkinElmer®, USA). All reagents were diluted in 50 mM 4-(2-hydroxyethyl)-1-piperazineethanesulfonic acid (HEPES), 150 mM NaCl, 0.1% w/v bovine serum albumin (BSA), 0.01% w/v Tween® 20, pH 7.5 and allowed to equilibrate to room temperature prior to addition to plates. After addition of AlphaScreen® acceptor beads to master solutions, all subsequent steps were performed under low light conditions. […] Plates were spun down at 150×g, 100 nL of compound in dimethyl sulfoxide (DMSO) from stock plates were added by pin transfer using a Janus® Workstation (PerkinElmer®, USA). The streptavidin-coated donor beads (10 ng/ml final) were added as with previous the solution in a 2×10 μL volume. Following this addition, plates were sealed with foil to prevent light exposure and evaporation. The plates were spun down again at 150×g.

CBP = CBP (Homo sapiens (Human), UniProt Q92793); assay: Western blot for CBP degradation in Kelly NB cells; type: cell-based; settings: 24 hours
Experimental: as §1

[2] = molecular target: bromodomain-containing protein 4 (BRD4) (Homo sapiens (Human), UniProt O60885); assay: Western blot for BRD4 levels in Kelly NB cells; type: cell-based; settings: 24 h, at 1 μM
Experimental: Kelly Neuroblastoma cells were seeded at 1,000,000 cells per well in 6 well plates and were treated in a dose-dependent manner for 24 hours. Whole cell lysates were collected using ice cold lysis buffer [300 mM NaCl, 50 mM Tris-HCl, pH 7.5, 0.5% Triton X-100, 1% sodium dodecyl sulfate (SDS), 1 mM dithiothreitol (DTT) (Invitrogen™), Roche®'s cOmplete™ protease inhibitor cocktail (1:000), 25 units/mL Benzonase®] and blotted at a protein concentration of 30 μg for EP300 and CBP and 10 μg for histone H3 and H3K27ac. Lysates were also blotted for bromodomain-containing protein 4 (BRD4). Lysates were resolved in NuPAGE™ 3-8% Tris-Acetate polyacrylamide gels (EA03785BOX, Invitrogen™) for EP300 and CBP and Bolt 4-12% Bis-Tris polyacrylamide gels (NW04125BOX, Invitrogen™) for H3 and H3K27ac. Afterwards, gels were transferred to nitrocellulose membranes (LC2001, Invitrogen™). Primary and secondary antibodies used included anti-p300 at 1:500 dilution (ab10485, Abcam®), anti-CBP at 1:500 dilution (D6C5, Cell Signaling Technology®), anti-Actin at 1:5000 dilution (3700S, Cell Signaling Technology®), anti-H3 at 1:1000 dilution (4499S, Cell Signaling Technology®), anti-H3K27ac at 1:1000 dilution (ab4729, Abcam®), IRDye®800 goat anti-rabbit at 1:5000 dilution (926-32211, LiCor® Biosciences) and IRDye®680 goat anti-mouse at 1:5000 dilution (926-68070, LiCor®). Visualization was performed on an Odyssey infrared imaging system (LiCor® Biosciences).

[3] = system: Kelly Neuroblastoma cells; assay: Western blot experiment, cytotoxicity observed in Kelly NB cells; type: cell-based; settings: 24 hours
Experimental: as §2

[4] = Kelly Neuroblastoma cells, class symbols, read-out: IC50 of inventive bispecific compounds
[5] = Kelly Neuroblastoma cells, read-out: IC50

EP300, sequence (Q09472 whole entry): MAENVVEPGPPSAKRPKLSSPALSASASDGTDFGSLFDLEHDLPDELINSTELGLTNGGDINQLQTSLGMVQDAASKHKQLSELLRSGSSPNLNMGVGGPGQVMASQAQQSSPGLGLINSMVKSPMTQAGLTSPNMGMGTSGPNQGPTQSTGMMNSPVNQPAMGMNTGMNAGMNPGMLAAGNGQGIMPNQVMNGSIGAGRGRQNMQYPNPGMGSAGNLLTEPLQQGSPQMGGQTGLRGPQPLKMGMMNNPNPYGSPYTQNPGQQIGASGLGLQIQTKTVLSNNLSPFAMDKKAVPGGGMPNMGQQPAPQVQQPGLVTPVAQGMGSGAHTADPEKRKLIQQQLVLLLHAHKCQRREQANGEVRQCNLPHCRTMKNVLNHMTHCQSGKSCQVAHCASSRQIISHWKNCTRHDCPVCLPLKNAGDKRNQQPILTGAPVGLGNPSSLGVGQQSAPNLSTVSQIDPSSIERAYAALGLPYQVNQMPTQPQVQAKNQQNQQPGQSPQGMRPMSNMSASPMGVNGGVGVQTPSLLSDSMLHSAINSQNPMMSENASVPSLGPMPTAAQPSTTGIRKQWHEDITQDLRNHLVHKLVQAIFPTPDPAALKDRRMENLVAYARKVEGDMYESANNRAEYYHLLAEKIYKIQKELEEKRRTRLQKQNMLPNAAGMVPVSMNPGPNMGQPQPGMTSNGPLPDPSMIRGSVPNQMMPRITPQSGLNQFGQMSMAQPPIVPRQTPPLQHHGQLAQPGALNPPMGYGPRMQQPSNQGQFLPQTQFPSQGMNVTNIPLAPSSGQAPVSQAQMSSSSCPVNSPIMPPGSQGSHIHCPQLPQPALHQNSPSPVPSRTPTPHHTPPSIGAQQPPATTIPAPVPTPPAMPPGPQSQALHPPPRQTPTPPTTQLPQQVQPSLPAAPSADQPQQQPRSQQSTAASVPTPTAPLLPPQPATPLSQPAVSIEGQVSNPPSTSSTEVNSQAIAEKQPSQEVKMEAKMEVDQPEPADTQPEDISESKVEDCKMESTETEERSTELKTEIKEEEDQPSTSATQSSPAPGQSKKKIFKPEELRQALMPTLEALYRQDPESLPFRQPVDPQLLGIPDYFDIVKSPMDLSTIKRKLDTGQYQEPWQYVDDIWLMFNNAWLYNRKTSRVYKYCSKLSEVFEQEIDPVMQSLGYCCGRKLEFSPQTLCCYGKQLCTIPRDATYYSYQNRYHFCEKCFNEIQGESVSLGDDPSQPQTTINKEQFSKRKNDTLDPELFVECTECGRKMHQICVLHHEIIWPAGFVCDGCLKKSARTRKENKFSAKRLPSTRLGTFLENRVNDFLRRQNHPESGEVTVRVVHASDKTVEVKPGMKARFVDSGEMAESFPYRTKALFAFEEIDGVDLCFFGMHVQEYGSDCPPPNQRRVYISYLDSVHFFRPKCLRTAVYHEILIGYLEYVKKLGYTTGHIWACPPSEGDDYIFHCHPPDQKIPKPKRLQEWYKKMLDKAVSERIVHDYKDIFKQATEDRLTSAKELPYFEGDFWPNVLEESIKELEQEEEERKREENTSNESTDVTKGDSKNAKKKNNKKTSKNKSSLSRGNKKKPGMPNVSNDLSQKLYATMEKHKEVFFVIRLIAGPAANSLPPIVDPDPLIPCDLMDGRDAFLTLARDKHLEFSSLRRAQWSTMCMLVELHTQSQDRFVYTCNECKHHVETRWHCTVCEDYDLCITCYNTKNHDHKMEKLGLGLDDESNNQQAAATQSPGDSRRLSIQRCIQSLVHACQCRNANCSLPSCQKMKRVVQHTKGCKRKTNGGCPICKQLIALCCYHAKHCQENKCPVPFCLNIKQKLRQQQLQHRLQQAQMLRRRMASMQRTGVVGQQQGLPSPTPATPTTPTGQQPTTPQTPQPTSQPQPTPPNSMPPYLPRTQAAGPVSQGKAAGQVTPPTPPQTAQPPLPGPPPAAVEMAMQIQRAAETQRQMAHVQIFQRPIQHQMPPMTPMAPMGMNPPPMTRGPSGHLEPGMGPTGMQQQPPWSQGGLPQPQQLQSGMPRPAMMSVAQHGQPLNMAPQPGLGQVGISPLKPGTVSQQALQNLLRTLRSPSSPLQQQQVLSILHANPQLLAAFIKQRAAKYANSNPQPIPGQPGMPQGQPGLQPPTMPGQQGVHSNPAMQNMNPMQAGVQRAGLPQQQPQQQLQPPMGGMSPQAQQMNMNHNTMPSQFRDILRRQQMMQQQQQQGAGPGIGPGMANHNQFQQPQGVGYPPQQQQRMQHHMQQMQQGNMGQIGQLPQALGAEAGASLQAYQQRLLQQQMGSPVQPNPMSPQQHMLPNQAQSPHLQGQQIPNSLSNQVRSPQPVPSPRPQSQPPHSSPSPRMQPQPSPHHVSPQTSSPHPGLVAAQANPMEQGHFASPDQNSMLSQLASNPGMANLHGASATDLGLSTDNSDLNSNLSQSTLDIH
CBP, sequence (Q92793 whole entry): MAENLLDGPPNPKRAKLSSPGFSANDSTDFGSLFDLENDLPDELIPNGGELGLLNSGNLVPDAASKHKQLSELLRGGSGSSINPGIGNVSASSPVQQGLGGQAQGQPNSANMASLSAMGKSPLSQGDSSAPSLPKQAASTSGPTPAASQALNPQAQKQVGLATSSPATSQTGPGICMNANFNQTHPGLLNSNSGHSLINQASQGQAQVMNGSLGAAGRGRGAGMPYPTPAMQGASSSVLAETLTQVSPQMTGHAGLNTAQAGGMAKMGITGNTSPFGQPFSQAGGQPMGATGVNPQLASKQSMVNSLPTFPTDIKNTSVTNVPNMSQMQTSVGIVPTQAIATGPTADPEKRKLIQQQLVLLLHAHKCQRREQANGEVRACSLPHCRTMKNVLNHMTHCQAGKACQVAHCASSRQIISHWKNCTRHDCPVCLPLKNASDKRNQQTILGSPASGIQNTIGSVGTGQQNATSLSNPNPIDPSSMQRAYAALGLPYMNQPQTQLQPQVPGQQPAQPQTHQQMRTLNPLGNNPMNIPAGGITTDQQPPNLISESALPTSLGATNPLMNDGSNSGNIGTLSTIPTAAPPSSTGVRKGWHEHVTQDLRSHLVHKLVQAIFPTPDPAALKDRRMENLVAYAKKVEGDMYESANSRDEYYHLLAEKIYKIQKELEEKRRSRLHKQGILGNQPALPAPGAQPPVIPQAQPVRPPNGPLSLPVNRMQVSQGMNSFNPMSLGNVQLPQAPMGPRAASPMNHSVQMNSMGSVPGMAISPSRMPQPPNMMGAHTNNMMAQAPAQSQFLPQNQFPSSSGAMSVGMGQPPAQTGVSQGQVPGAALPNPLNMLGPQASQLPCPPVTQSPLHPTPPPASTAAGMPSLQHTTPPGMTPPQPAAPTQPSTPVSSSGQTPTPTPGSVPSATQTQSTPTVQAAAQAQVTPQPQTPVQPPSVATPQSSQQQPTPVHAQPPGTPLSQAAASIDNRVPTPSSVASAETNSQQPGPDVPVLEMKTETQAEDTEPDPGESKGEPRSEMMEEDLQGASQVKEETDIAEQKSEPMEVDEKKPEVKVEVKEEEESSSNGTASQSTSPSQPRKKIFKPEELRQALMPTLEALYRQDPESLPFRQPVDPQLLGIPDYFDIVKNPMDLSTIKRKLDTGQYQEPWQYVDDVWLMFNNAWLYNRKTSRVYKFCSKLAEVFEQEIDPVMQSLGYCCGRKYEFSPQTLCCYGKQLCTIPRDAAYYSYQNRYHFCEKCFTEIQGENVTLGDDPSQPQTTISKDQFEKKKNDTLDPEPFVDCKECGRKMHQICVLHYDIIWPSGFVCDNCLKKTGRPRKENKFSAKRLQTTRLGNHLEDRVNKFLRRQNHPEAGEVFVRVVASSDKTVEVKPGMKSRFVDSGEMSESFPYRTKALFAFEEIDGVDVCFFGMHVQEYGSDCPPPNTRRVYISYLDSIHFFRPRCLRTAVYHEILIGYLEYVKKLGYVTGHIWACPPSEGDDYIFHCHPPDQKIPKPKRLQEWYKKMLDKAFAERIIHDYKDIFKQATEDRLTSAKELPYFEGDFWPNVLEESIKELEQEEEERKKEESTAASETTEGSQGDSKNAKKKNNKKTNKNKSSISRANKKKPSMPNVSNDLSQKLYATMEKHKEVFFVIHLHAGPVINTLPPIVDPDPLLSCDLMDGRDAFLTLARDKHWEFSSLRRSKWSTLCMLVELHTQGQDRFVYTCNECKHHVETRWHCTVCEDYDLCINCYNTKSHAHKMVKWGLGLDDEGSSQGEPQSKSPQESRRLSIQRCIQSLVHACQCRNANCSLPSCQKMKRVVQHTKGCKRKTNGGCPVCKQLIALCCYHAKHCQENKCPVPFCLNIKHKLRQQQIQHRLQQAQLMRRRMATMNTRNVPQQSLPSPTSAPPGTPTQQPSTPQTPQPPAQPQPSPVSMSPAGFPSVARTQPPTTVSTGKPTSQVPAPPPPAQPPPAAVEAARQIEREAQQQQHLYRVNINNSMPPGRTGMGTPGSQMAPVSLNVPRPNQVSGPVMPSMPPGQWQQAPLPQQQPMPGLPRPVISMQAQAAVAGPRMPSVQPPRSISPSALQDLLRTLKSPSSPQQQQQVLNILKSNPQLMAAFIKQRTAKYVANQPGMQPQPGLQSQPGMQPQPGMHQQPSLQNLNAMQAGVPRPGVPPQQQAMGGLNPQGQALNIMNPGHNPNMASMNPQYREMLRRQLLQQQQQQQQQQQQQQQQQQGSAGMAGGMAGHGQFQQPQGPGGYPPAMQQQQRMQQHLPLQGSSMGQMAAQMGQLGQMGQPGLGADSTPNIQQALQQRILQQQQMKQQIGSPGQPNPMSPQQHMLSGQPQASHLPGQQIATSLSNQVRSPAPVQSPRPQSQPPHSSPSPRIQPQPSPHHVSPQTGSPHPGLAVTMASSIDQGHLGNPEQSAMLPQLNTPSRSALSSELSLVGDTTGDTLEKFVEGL
CBP bromodomain, sequence (Q92793 1085-1192): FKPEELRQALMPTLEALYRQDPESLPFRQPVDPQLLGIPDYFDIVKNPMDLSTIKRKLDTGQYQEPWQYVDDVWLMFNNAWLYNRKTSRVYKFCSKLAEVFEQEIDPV

Row | Structure (SMILES) | IC50 [1, 4] [nM] | IC50 [1, 5] [nM] | P300 degradation (immunoblot) (EP300; at 1 μM) | CBP degradation (immunoblot) (CBP; at 1 μM) | BRD4 degradation (immunoblot) [2] | acetylation levels (immunoblot) (H3K27ac) | other results
1 | Cc1noc(C)c1-c1ccc2nc(-c3ccc(N4CCN(C(=O)CCOCCOCCOCCNc5cccc6c5C(=O)N(C5CCC(=O)NC5=O)C6=O)CC4)cc3)c(NC3CCCCC3)n2c1 (stereo not shown) [Compound 2, 4-((2-(2-(2-(3-(4-(4-(3-(cyclohexylamino)-6-(3,5-dimethylisoxazol-4-yl)imidazo[1,2-a]pyridin-2-yl)phenyl)piperazin-1-yl)-3-oxopropoxy)ethoxy)ethoxy)ethyl)amino)-2-(2,6-dioxopiperidin-3-yl)isoindoline-1,3-dione] | < 100 | 91.8 ± 6.58 | – | – | – | – | EP300 degradation (immunoblot) (EP300; concentration not given): potent degrader; IC50 potency relative to A485 ([1]; Kelly Neuroblastoma cells, more potent than A485): about 10 fold; H3K27ac / acetylation levels (immunoblot) (H3K27ac): evident reduction; bound to CBP (bromodomain), range (CBP bromodomain): ~10 µM; CBP degradation (immunoblot) (CBP; concentration not given): potent degrader
2 | Cc1noc(C)c1-c1ccn2c(NCc3ccccc3)c(-c3ccc(N4CCN(C(=O)COc5cccc6c5C(=O)N(C5CCC(=O)NC5=O)C6=O)CC4)cc3)nc2c1 (stereo not shown) [Compound 7, 4-(2-(4-(4-(3-(benzylamino)-7-(3,5-dimethylisoxazol-4-yl)imidazo[1,2-a]pyridin-2-yl)phenyl)piperazin-1-yl)-2-oxoethoxy)-2-(2,6-dioxopiperidin-3-yl)isoindoline-1,3-dione] | < 100 | 33.1 | noticeable degradation | noticeable degradation | – | – | IC50 values (range in words) [1]: micromolar and sub-micromolar range; H3K27ac / acetylation levels (immunoblot) (H3K27ac): slight reduction
3 | Cc1noc(C)c1-c1ccn2c(NC3CCCCC3)c(CCc3ccc(NC(=O)COc4cccc5c4C(=O)N(C4CCC(=O)NC4=O)C5=O)cc3)nc2c1 (stereo not shown) [Compound 12, N-(4-(2-(3-(cyclohexylamino)-7-(3,5-dimethylisoxazol-4-yl)imidazo[1,2-a]pyridin-2-yl)ethyl)phenyl)-2-((2-(2,6-dioxopiperidin-3-yl)-1,3-dioxoisoindolin-4-yl)oxy)acetamide] | 1000 to 10000 | – | noticeable degradation | – | observed | reduction | –
4 | Cc1noc(C)c1-c1ccc2c(c1)nc([C@@H]1CCCC(=O)N1c1ccc(F)c(F)c1)n2[C@H]1CC[C@H](NC(=O)CCCCCCCCCNc2cccc3c2C(=O)N(C2CCC(=O)NC2=O)C3=O)CC1 (stereo partly drawn) [Compound 29, N-((1S,4r)-4-(2-((S)-1-(3,4-difluorophenyl)-6-oxopiperidin-2-yl)-5-(3,5-dimethylisoxazol-4-yl)-1H-benzo[d]imidazol-1-yl)cyclohexyl)-10-((2-(2,6-dioxopiperidin-3-yl)-1,3-dioxoisoindolin-4-yl)amino)decanamide] | < 100 | – | – | – | – | – | –
5 | Cc1noc(C)c1-c1ccc2c(c1)nc([C@@H]1CCCC(=O)N1c1ccc(F)c(F)c1)n2[C@H]1CC[C@H](NC(=O)CCCCCNc2cccc3c2C(=O)N(C2CCC(=O)NC2=O)C3=O)CC1 (stereo partly drawn) [Compound 30, N-((1S,4r)-4-(2-((S)-1-(3,4-difluorophenyl)-6-oxopiperidin-2-yl)-5-(3,5-dimethylisoxazol-4-yl)-1H-benzo[d]imidazol-1-yl)cyclohexyl)-6-((2-(2,6-dioxopiperidin-3-yl)-1,3-dioxoisoindolin-4-yl)amino)hexanamide] | 100 to 1000 | – | – | – | – | – | –
6 | Cc1noc(C)c1-c1ccc2nc(-c3ccc(N4CCNCC4)cc3)c(NC3CCCCC3)n2c1.Cl [Int-2] | – | – | – | – | – | – | general cytotoxicity [3]: general cytotoxicity; bound to CBP (bromodomain), range (CBP bromodomain): ~10 µM

More lines, main results first:

Row | IC50 [1, 4] [nM] | IC50 [1, 5] [nM] | P300 degradation (immunoblot) (EP300; at 1 μM) | CBP degradation (immunoblot) (CBP; at 1 μM) | BRD4 degradation (immunoblot) [2] | Structure (SMILES) | acetylation levels (immunoblot) (H3K27ac) | other results
7 | 100 to 1000 | 706 | – | – | – | Cc1noc(C)c1-c1ccc2nc(-c3ccc(N4CCN(C(=O)CCOCCOCCOCCOCCOCCOCCNc5cccc6c5C(=O)N(C5CCC(=O)NC5=O)C6=O)CC4)cc3)c(NC3CCCCC3)n2c1 (stereo not shown) [Compound 3, 4-((21-(4-(4-(3-(cyclohexylamino)-6-(3,5-dimethylisoxazol-4-yl)imidazo[1,2-a]pyridin-2-yl)phenyl)piperazin-1-yl)-21-oxo-3,6,9,12,15,18-hexaoxahenicosyl)amino)-2-(2,6-dioxopiperidin-3-yl)isoindoline-1,3-dione] | – | P300 degradation (immunoblot) (EP300; at 10 μM): some degradation; IC50 values (range in words) [1]: micromolar and sub-micromolar range; CBP degradation (immunoblot) (CBP; at 10 μM): some degradation
8 | 100 to 1000 | – | noticeable degradation | noticeable degradation | observed | Cc1noc(C)c1-c1ccn2c(NC3CCCCC3)c(CCc3ccc(NC(=O)CCOCCOCCOCCNc4cccc5c4C(=O)N(C4CCC(=O)NC4=O)C5=O)cc3)nc2c1 (stereo not shown) [Compound 8, N-(4-(2-(3-(cyclohexylamino)-7-(3,5-dimethylisoxazol-4-yl)imidazo[1,2-a]pyridin-2-yl)ethyl)phenyl)-3-(2-(2-(2-((2-(2,6-dioxopiperidin-3-yl)-1,3-dioxoisoindolin-4-yl)amino)ethoxy)ethoxy)ethoxy)propanamide] | reduction | –
9 | 100 to 1000 | – | noticeable degradation | noticeable degradation | observed | Cc1noc(C)c1-c1ccn2c(NC3CCCCC3)c(CCc3ccc(NC(=O)CCCCCNc4cccc5c4C(=O)N(C4CCC(=O)NC4=O)C5=O)cc3)nc2c1 (stereo not shown) [Compound 11, N-(4-(2-(3-(cyclohexylamino)-7-(3,5-dimethylisoxazol-4-yl)imidazo[1,2-a]pyridin-2-yl)ethyl)phenyl)-6-((2-(2,6-dioxopiperidin-3-yl)-1,3-dioxoisoindolin-4-yl)amino)hexanamide] | reduction | –
10 | > 10000 | – | – | – | – | Cc1noc(C)c1-c1ccc2c(c1)nc(CCc1ccc(NCCNC(=O)CCCCCNc3cccc4c3C(=O)N(C3CCC(=O)NC3=O)C4=O)cc1)n2CC(C)N1CCOCC1 (stereo not shown) [Compound 28, N-(2-((4-(2-(5-(3,5-dimethylisoxazol-4-yl)-1-(2-morpholinopropyl)-1H-benzo[d]imidazol-2-yl)ethyl)phenyl)amino)ethyl)-6-((2-(2,6-dioxopiperidin-3-yl)-1,3-dioxoisoindolin-4-yl)amino)hexanamide] | – | –
